Experimental data taken from patent US11203608B2, “Platinum-containing compounds, and related compositions and uses thereof” (Massachusetts Institute of Technology, priority 2019, dated 2021).
Where two headings read alike, the source gives them in different places.

How the values were obtained:
[1] = system: APC−/−; TdTomato+ (A-tdt) organoids; assay: Viability of A-tdt murine colorectal cancer organoids, resazurin assay; format: cell-based; conditions: 72-h exposure (table title), read-out: IC50 against A-tdt organoids
Text: (§1) Colonic crypts were isolated and colon organoids were generated from the following mouse genotypes on a C57Bl/6 background: 1. Rosa-LSL-TdTomato (hereafter LSL-tdt), 2. P53^f1/f1; LSL-tdt, and 3. LSL-KRAS^G12D/WT; P53^fl/fl; LSL-tdt mice. Subsequently, the pSECC-APC plasmid (carrying Cre, Cas9, and sgAPC) was transfected into each of the above three genotypes of colon organoids. This transfection strategy generated, in a single step, the following colorectal cancer organoids, including 1. APC^−/−; TdTomato^+ (A-tdt), 2. APC^−/−; P53^−/−; TdTomato^+ (AP-tdt), and 3. APC^−/−; KRAS^G12D/WT; P53^−/−; TdTomato^+ (AKP-tdt). Organoids of the desired genotype were selected for by Wnt/Rspo withdrawal for APC^−/−, Nutlin-3 addition for P53^−/−, and EGF withdrawal for KRAS^G12D.
(§2) Twenty four hours after seeding the organoids, a media change was performed and dose responses of oxaliplatin, doxorubicin and doxaliplatin were added. […] Organoids were cultured in Advanced DMEM/F12 supplemented with 2 mM GlutaMAX, 1% Penicillin-Streptomycin, 2% B27, and Y-27632 (10 μM).

[2] = system: APC−/−; P53−/−; TdTomato+ (AP-tdt) organoids; assay: Viability of AP-tdt murine colorectal cancer organoids, resazurin assay; format: cell-based; conditions: 72-h exposure (table title), read-out: IC50 against AP-tdt organoids
Text: as §1, §2

[3] = system: APC−/−; KRASG12D/WT; P53−/−; TdTomato+ (AKP-tdt) organoids; assay: Viability of AKP-tdt murine colorectal cancer organoids, resazurin assay; format: cell-based; conditions: 72-h exposure (table title), read-out: IC50 against AKP-tdt organoids
Text: as §1, §2

[4] = system: APC−/−; KRASG12D/WT; P53−/− (AKP) organoids; assay: Viability of AKP murine colorectal cancer organoids; format: cell-based; conditions: 72-h exposure, read-out: IC50 against AKP organoids
Text: (§3) To generate 4. APC^−/−; KRAS^G12D/WT; P53^−/−; (AKP) and 5. APC^−/−; KRAS^G12D/WT; P53^−/−; MSH2^−/− (AKP-MSH2) colon cancer organoids, colonic crypts were isolated and colon organoids were generated from the following mouse genotypes on a C57Bl/6 background: 4. LSL-KRAS^G12D/WT; P53^fl/fl mice and 5. LSL-KRAS^G12D; P53^fl/fl; MSH2^fl/fl mice. Subsequently, the pSECC-APC plasmid (carrying Cre, Cas9, and sgAPC) was transfected into each of the above two genotypes of colon organoids. Following pSECC-APC transfection, Wnt/Rspo withdrawal was performed and surviving (APC^−/−) single organoids were cloned and PCR genotyped for Cre mediated deletion of p53 and/or MSH2, and for Cre mediated activation of oncogenic KRAS^G12D.
as §2

[5] = system: APC−/−; KRASG12D/WT; P53−/−; MSH2−/− (AKP-MSH2) organoids; assay: Viability of AKP-MSH2 murine colorectal cancer organoids; format: cell-based; conditions: 72-h exposure, read-out: IC50 against AKP-MSH2 organoids
Text: as §3, §2

[6] = system: HT-29 human colorectal adenocarcinoma; assay: Cell growth, resazurin assay, HT-29; format: cell-based; conditions: 96-h exposure (table title), read-out: IC50 HT-29 (colon)
Method: (§4) Cells were cultured in 10 mL of Advanced DMEM/F12 (ADMEM/F12), supplemented with 5% FBS, 2 mM GlutaMAX, and 1% Penicillin-Streptomycin in 10 cm tissue culture plates. Cells were then plated into 96-well plates with about 2.5×10^3 cells per well. Cells were plated with 200 μL per well of ADMEM/F12 supplemented with 5% FBS, 2 mM GlutaMAX, and 1% Penicillin-Streptomycin. Cells were treated with dose responses of doxorubicin, oxaliplatin, or doxaliplatin upon plating. The cells were then cultured for 72 hours following drug treatment, and cell growth was measured by resazurin assay.

[7] = system: MDA-MB-231 human breast adenocarcinoma; assay: Cell growth, resazurin assay, MDA-MB-231; format: cell-based; conditions: 96-h exposure (table title)
Method: as §4

[8] = system: PC3 human prostate adenocarcinoma; assay: Cell growth, resazurin assay, PC3; format: cell-based; conditions: 96-h exposure (table title)
Method: as §4

U2OS human osteosarcoma = assay: Cell growth, resazurin assay, U2OS; format: cell-based; conditions: 96-h exposure (table title), read-out: IC50 U2OS (bone)
Method: as §4

[9] = system: A549 human lung carcinoma; assay: Cell growth, resazurin assay, A549; format: cell-based; conditions: 96-h exposure (table title)
Method: as §4

[10] = system: HL60 human leukemia cell line; assay: Cell growth, resazurin assay, HL60; format: cell-based; conditions: 96-h exposure (table title)
Method: as §4

[11] = system: A2780 human ovarian cancer cell line; assay: Cell growth, resazurin assay, A2780; format: cell-based; conditions: A2780, 72-h exposure
Method: as §4

[12] = system: doxorubicin-resistant A2780ADR human ovarian cancer cell line; assay: Cell growth, resazurin assay, A2780ADR; format: cell-based; conditions: 72-h exposure
Method: as §4

[13] = system: cisplatin-resistant A2780CIS human ovarian cancer cell line; assay: Cell growth, resazurin assay, A2780CIS; format: cell-based; conditions: 72-h exposure
Method: as §4

[14] = system: OVCAR8 human ovarian cancer cell line; assay: Cell growth, resazurin assay, OVCAR8; format: cell-based; conditions: 72-h exposure
Method: as §4

[15] = system: doxorubicin-resistant A2780ADR ovarian cancer cell line
Method: (§5) ICP-MS was performed on an Agilent 7900 ICP-MS in helium mode.
(§6) The cells in a six-well plate were treated with oxaliplatin, doxaliplatin, or a mixture of doxorubicin and oxaliplatin at indicated concentration in 2 mL of Advanced DMEM/F12 (ADMEM/F12), supplemented with 5% FBS, 2 mM GlutaMAX, and 1% Penicillin-Streptomycin. After three hours, the media were removed. The cells were washed with xl PBS buffer containing EDTA (100 μM, 4 mL×2). To each well, MilliQ water (1.0 mL) was added. After 15 min, the cells were suspended. A portion of the resulting cell lysate (900 μL) was transferred to an Eppendorf tube. The samples were frozen in liquid nitrogen and thawed at room temperature. This procedure was repeated for three times. The insoluble lysate was pelleted (10000 rpm for 10 min). […] Pierce 660 nm Protein solution (200 μL) was added to each well. An aliquot of the lysate (14.2 μL) was added to each well. The plate was shaken and read on a plate reader. The remaining samples were frozen at liquid nitrogen temperature and lyophilized. The dried material was digested with Aristar® ultrapure concentrated nitric acid (70%) at 70° C. for one hour. An aliquot of this solution (142 μL) was mixed with molecular biology grade water (2000 μL) and a terbium internal standard (40 μL, 100 ppb). The platinum content was then determined using an Agilent 7900 ICP-MS in helium mode. The concentration of platinum in the cells was normalized to measured protein concentration described above.

[16] = system: OVCAR8-OXR oxaliplatin-resistant human ovarian cancer cell line; assay: Cell growth, resazurin assay, OVCAR8-OXR; conditions: for Fold Resistance (IC50, OVCAR8OXR vs OVCAR8): based on IC50 values; for Fold Resistance (IC80, OVCAR8OXR vs OVCAR8): based on IC80 values; for IC50: read-out: IC50 OVCAR8OXR; for IC80: read-out: IC80 OVCAR8OXR
Method: Cells were cultured in 10 mL of Advanced DMEM/F12 (ADMEM/F12), supplemented with 5% FBS, 2 mM GlutaMAX, and 1% Penicillin-Streptomycin in 10 cm tissue culture plates. Cells were then plated into 96-well plates with about 2.5×10^3 cells per well. Cells were plated with 200 μL per well of ADMEM/F12 supplemented with 5% FBS, 2 mM GlutaMAX, and 1% Penicillin-Streptomycin. […] The cells were then cultured for 72 hours following drug treatment, and cell growth was measured by resazurin assay.

[17] = system: A2780 human ovarian cancer cell line; assay: Whole-cell platinum uptake by ICP-MS, A2780; conditions: three hours
Method: as §5, §6

[18] = system: A2780 human ovarian cancer cell line; conditions: human, 3 h
Method: as §5, §6

O=C1[O][Pt]2([NH][C@@H]3CCCC[C@H]3[NH]2)[O]C1=O [Ox, oxaliplatin]
IC50 [1]: 2200 nM
IC50 [2]: 1500 nM
IC50 [3]: 4100 nM
IC50 [4]: 1400 nM
IC50 [5]: 2200 nM
IC50 [6]: 470 nM
IC50 [7]: 920 nM
IC50 [8]: 1000 nM
IC50 (U2OS human osteosarcoma): 580 nM
IC50 [9]: 400 nM
IC50 [10]: 560 nM
IC50 [11]: 170 nM
IC90 [11]: 590 nM
IC95 [11]: 5600 nM
IC50 [12]: 430 nM
IC90 [12]: 2400 nM
IC95 [12]: 29000 nM
IC50 [13]: 430 nM
IC90 [13]: 6600 nM
IC95 [13]: 13000 nM
IC50 [14]: 580 ± 60 nM
IC80 [14]: 12000 ± 3000 nM
Platinum drug uptake (separate comparison experiment) [15]: 0.0065 ± 0.0004 nmol/mg protein
Platinum drug uptake ([15]; A2780ADR, [Drug] 0.20 μM, three hours): 0.0011 ± 0.0004 nmol/mg protein
Platinum drug uptake ([15]; A2780ADR, [Drug] 1.0 μM, three hours): 0.0039 ± 0.0001 nmol/mg protein
Platinum drug uptake ([15]; A2780ADR, [Drug] 5.0 μM, three hours): 0.023 ± 0.001 nmol/mg protein
Fold Resistance (IC50, OVCAR8OXR vs OVCAR8) ([16]; 72-h exposure): 14 fold
Fold Resistance (IC80, OVCAR8OXR vs OVCAR8) ([16]; 72-h exposure): 3.3 fold
IC50 ([16]; 72-h exposure): 8200 ± 1300 nM
IC80 ([16]; 72-h exposure): 40000 ± 2000 nM
Platinum drug uptake ([17]; A2780, [Drug] 0.20 μM): 0.0029 ± 0.0006 nmol/mg protein
Platinum drug uptake ([17]; A2780, [Drug] 1.0 μM): 0.0093 ± 0.0004 nmol/mg protein
Platinum drug uptake ([17]; A2780, [Drug] 5.0 μM): 0.050 ± 0.004 nmol/mg protein
Platinum drug uptake (separate comparison experiment) ([17]; A2780, single drug 1.0 μM or oxaliplatin 1.0 μM + doxorubicin 1.0 μM): 0.011 ± 0.000 nmol/mg protein

COc1cccc2c1C(=O)c1c(O)c3c(c(O)c1C2=O)C[C@@](O)(C(=O)CO)C[C@@H]3O[C@H]1C[C@H](N)[C@H](O)[C@H](C)O1 [DOX, doxorubicin]
IC50 ([1]; Mus musculus): 58 nM
IC50 ([2]; Mus musculus): 45 nM
IC50 ([3]; Mus musculus): 75 nM
IC50 ([4]; Mus musculus): 9.1 nM
IC50 ([5]; Mus musculus): 6.5 nM
IC50 ([6]; Homo sapiens, HT-29): 38 nM
IC50 ([7]; Homo sapiens, MDA-MB-231): 75 nM
IC50 ([8]; Homo sapiens): 41 nM
IC50 (U2OS human osteosarcoma; Homo sapiens, U2OS): 13 nM
IC50 ([9]; Homo sapiens, A549): 23 nM
IC50 ([10]; Homo sapiens, HL-60): 43 nM
IC95 [11]: 160 nM
IC50 ([11]; Homo sapiens): 11 nM
IC90 ([11]; Homo sapiens): 75 nM
IC95 [12]: 1600 nM
IC50 ([12]; Homo sapiens, A2780 ADR): 54 nM
IC90 ([12]; Homo sapiens, A2780 ADR): 620 nM
IC95 [13]: 540 nM
IC50 ([13]; Homo sapiens): 50 nM
IC90 ([13]; Homo sapiens): 390 nM
IC50 ([14]; Homo sapiens, OVCAR-8): 86 ± 3 nM
IC80 ([14]; Homo sapiens, OVCAR-8): 410 ± 20 nM
Platinum drug uptake ([18]; 0.2 μM): 0.023 ± 0.002 nmol/mg protein
Platinum drug uptake ([18]; 1 μM): 0.12 ± 0.01 nmol/mg protein
Platinum drug uptake ([18]; 5 μM): 0.63 ± 0.03 nmol/mg protein
Platinum drug uptake ([15]; human, 3 h, 0.2 μM): 0.0087 ± 0.0008 nmol/mg protein
Platinum drug uptake ([15]; human, 3 h, 1 μM): 0.051 ± 0.001 nmol/mg protein
Platinum drug uptake ([15]; human, 3 h, 5 μM): 0.36 ± 0.07 nmol/mg protein
IC50 ([16]; Homo sapiens, 72 h): 250 ± 10 nM
IC80 ([16]; Homo sapiens, 72 h): 740 ± 50 nM
Fold Resistance (IC50, OVCAR8OXR vs OVCAR8) ([16]; 72-h exposure): 2.9 fold
Fold Resistance (IC80, OVCAR8OXR vs OVCAR8) ([16]; 72-h exposure): 1.8 fold
